This series in a line: recombinant barcode read abundance after kanamycin selection (control-corrected) (log10(CPM+1)); higher = more efficient recombination; sequences stand for … in AGTGCAGAGAAAATCGGCCAGTTTTCTCTGCCTGCAGTCCGCATGCCGT…ATTTATGCAGCGGACTGCCTTTCTCCCAAAGTGATAAACCGGACAGTATCATGGACCGGTTTTCCCGGTAATCCGTATTTGCAAGGTTGGTTTCACT; site = the 11-nt target. In a few lines:
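Pooled oligos, each joining a target to an IS621 bridge RNA target-binding loop, were cloned and co-electroporated with a donor plasmid into E. coli. Selective plates carried chloramphenicol/ampicillin/kanamycin and 0.1 mM IPTG, while chloramphenicol/ampicillin LB agar served as control, with two replicates of each. Recombination efficiency rests on averaged, control-corrected counts per million of barcodes at recombinant junctions, shown as log10(CPM+1).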

32 sequences from the supplement of paper PMC11208160 can be followed below.

On to “ATGTCCCGCTGGGTTCTAACCTGTTGCTCGC [ATGTCCCCTGA_LTGcore_GC_RTGcore_GC] (site ATGTCCCCTGA) (LTG core: GC, RTG core: GC)”, for which the “recombinant barcode read abundance (log10)” value came to 0.103.

Consider “ATGTCCCTATGGGTTCTAACCTGTTGCTCAG [ATGTCCCCTGA_LTGcore_TA_RTGcore_CT] (site ATGTCCCCTGA) (LTG core: TA, RTG core: CT)”, for which the “recombinant barcode read abundance (log10)” value is 0.0463.

In the case of “ATGTCCCTATGGGTTCTAACCTGTTGCTCTA [ATGTCCCCTGA_LTGcore_TA_RTGcore_TA] (site ATGTCCCCTGA) (LTG core: TA, RTG core: TA)”, the “recombinant barcode read abundance (log10)” value was 0.208.

As for “ATGTCCCTTTGGGTTCTAACCTGTTGCTCAA [ATGTCCCCTGA_LTGcore_TT_RTGcore_TT] (site ATGTCCCCTGA) (LTG core: TT, RTG core: TT)”, the “recombinant barcode read abundance (log10)” value turned out to be 0.0472.

“CATATTAAGTGGGTTCTAACCTGTTGCCTCT [CATATTACTAG_LTGcore_AG_RTGcore_AG] (site CATATTACTAG) (LTG core: AG, RTG core: AG)”: the “recombinant barcode read abundance (log10)” value was determined as 0.0293.

As to “CATATTAATTGGGTTCTAACCTGTTGCCTAG [CATATTACTAG_LTGcore_AT_RTGcore_CT] (site CATATTACTAG) (LTG core: AT, RTG core: CT)”, the “recombinant barcode read abundance (log10)” value worked out at 0.195.

As for “CATATTACATGGGTTCTAACCTGTTGCCTAG [CATATTACTAG_LTGcore_CA_RTGcore_CT] (site CATATTACTAG) (LTG core: CA, RTG core: CT)”, the “recombinant barcode read abundance (log10)” value turned out to be 0.126.

With “CATATTACTTGGGTTCTAACCTGTTGCCTAC [CATATTACTAG_LTGcore_CT_RTGcore_GT] (site CATATTACTAG) (LTG core: CT, RTG core: GT)”, the “recombinant barcode read abundance (log10)” value turned out to be 1.01.

As to “CATATTAGATGGGTTCTAACCTGTTGCCTTC [CATATTACTAG_LTGcore_GA_RTGcore_GA] (site CATATTACTAG) (LTG core: GA, RTG core: GA)”, the “recombinant barcode read abundance (log10)” value came out at 0.0675.

With “CATATTAGCTGGGTTCTAACCTGTTGCCTAG [CATATTACTAG_LTGcore_GC_RTGcore_CT] (site CATATTACTAG) (LTG core: GC, RTG core: CT)”, the “recombinant barcode read abundance (log10)” value stood at 0.73.

On to “CATATTAGGTGGGTTCTAACCTGTTGCCTAG [CATATTACTAG_LTGcore_GG_RTGcore_CT] (site CATATTACTAG) (LTG core: GG, RTG core: CT)”, for which the “recombinant barcode read abundance (log10)” value was 0.182.

For the sequence “CATATTATATGGGTTCTAACCTGTTGCCTTA [CATATTACTAG_LTGcore_TA_RTGcore_TA] (site CATATTACTAG) (LTG core: TA, RTG core: TA)”, the “recombinant barcode read abundance (log10)” value worked out at 0.00689.

“CGAGCCCACTGGGTTCTAACCTGTTGCTGGT [CGAGCCCCTCA_LTGcore_AC_RTGcore_AC] (site CGAGCCCCTCA) (LTG core: AC, RTG core: AC)”: the “recombinant barcode read abundance (log10)” value is 0.0238.

With “CGAGCCCCGTGGGTTCTAACCTGTTGCTGAG [CGAGCCCCTCA_LTGcore_CG_RTGcore_CT] (site CGAGCCCCTCA) (LTG core: CG, RTG core: CT)”, the “recombinant barcode read abundance (log10)” value was found to be 0.587.

Consider “CGAGCCCCTTGGGTTCTAACCTGTTGCTGAC [CGAGCCCCTCA_LTGcore_CT_RTGcore_GT] (site CGAGCCCCTCA) (LTG core: CT, RTG core: GT)”, for which the “recombinant barcode read abundance (log10)” value turned out to be 0.19.

Regarding “CGAGCCCCTTGGGTTCTAACCTGTTGCTGCA [CGAGCCCCTCA_LTGcore_CT_RTGcore_TG] (site CGAGCCCCTCA) (LTG core: CT, RTG core: TG)”, the “recombinant barcode read abundance (log10)” value was determined as 0.0283.

In the case of “CGAGCCCCTTGGGTTCTAACCTGTTGCTGGC [CGAGCCCCTCA_LTGcore_CT_RTGcore_GC] (site CGAGCCCCTCA) (LTG core: CT, RTG core: GC)”, the “recombinant barcode read abundance (log10)” value amounted to 0.405.

Consider “CGAGCCCGCTGGGTTCTAACCTGTTGCTGAG [CGAGCCCCTCA_LTGcore_GC_RTGcore_CT] (site CGAGCCCCTCA) (LTG core: GC, RTG core: CT)”, for which the “recombinant barcode read abundance (log10)” value was determined as 0.195.

For “CGAGCCCGCTGGGTTCTAACCTGTTGCTGGC [CGAGCCCCTCA_LTGcore_GC_RTGcore_GC] (site CGAGCCCCTCA) (LTG core: GC, RTG core: GC)”, the “recombinant barcode read abundance (log10)” value is 0.0793.

As for “CGAGCCCGTTGGGTTCTAACCTGTTGCTGAG [CGAGCCCCTCA_LTGcore_GT_RTGcore_CT] (site CGAGCCCCTCA) (LTG core: GT, RTG core: CT)”, the “recombinant barcode read abundance (log10)” value was found to be 0.102.

Turning to “CGCGCCCAATGGGTTCTAACCTGTTGCGGTT [CGCGCCCCTCC_LTGcore_AA_RTGcore_AA] (site CGCGCCCCTCC) (LTG core: AA, RTG core: AA)”, the “recombinant barcode read abundance (log10)” value worked out at 0.134.

As to “CGCGCCCACTGGGTTCTAACCTGTTGCGGAG [CGCGCCCCTCC_LTGcore_AC_RTGcore_CT] (site CGCGCCCCTCC) (LTG core: AC, RTG core: CT)”, the “recombinant barcode read abundance (log10)” value amounted to 0.0345.

On to “CGCGCCCACTGGGTTCTAACCTGTTGCGGGT [CGCGCCCCTCC_LTGcore_AC_RTGcore_AC] (site CGCGCCCCTCC) (LTG core: AC, RTG core: AC)”, for which the “recombinant barcode read abundance (log10)” value worked out at 0.0786.

Consider “CGCGCCCCCTGGGTTCTAACCTGTTGCGGAG [CGCGCCCCTCC_LTGcore_CC_RTGcore_CT] (site CGCGCCCCTCC) (LTG core: CC, RTG core: CT)”, for which the “recombinant barcode read abundance (log10)” value was determined as 0.158.

For “CGCGCCCCTTGGGTTCTAACCTGTTGCGGAC [CGCGCCCCTCC_LTGcore_CT_RTGcore_GT] (site CGCGCCCCTCC) (LTG core: CT, RTG core: GT)”, the “recombinant barcode read abundance (log10)” value was found to be 0.0615.

Consider “CGCGCCCCTTGGGTTCTAACCTGTTGCGGAT [CGCGCCCCTCC_LTGcore_CT_RTGcore_AT] (site CGCGCCCCTCC) (LTG core: CT, RTG core: AT)”, for which the “recombinant barcode read abundance (log10)” value was 0.243.

“CGCGCCCCTTGGGTTCTAACCTGTTGCGGCG [CGCGCCCCTCC_LTGcore_CT_RTGcore_CG] (site CGCGCCCCTCC) (LTG core: CT, RTG core: CG)”: the “recombinant barcode read abundance (log10)” value is 0.0742.

For “CGCGCCCCTTGGGTTCTAACCTGTTGCGGGT [CGCGCCCCTCC_LTGcore_CT_RTGcore_AC] (site CGCGCCCCTCC) (LTG core: CT, RTG core: AC)”, the “recombinant barcode read abundance (log10)” value is 0.266.

Regarding “CGCGCCCCTTGGGTTCTAACCTGTTGCGGTT [CGCGCCCCTCC_LTGcore_CT_RTGcore_AA] (site CGCGCCCCTCC) (LTG core: CT, RTG core: AA)”, the “recombinant barcode read abundance (log10)” value is 0.146.

For “CGCGCCCGATGGGTTCTAACCTGTTGCGGAG [CGCGCCCCTCC_LTGcore_GA_RTGcore_CT] (site CGCGCCCCTCC) (LTG core: GA, RTG core: CT)”, the “recombinant barcode read abundance (log10)” value turned out to be 0.217.

Take “CGCGCCCGCTGGGTTCTAACCTGTTGCGGGC [CGCGCCCCTCC_LTGcore_GC_RTGcore_GC] (site CGCGCCCCTCC) (LTG core: GC, RTG core: GC)”: the “recombinant barcode read abundance (log10)” value is 0.552.

With “CGCGCCCGTTGGGTTCTAACCTGTTGCGGAG [CGCGCCCCTCC_LTGcore_GT_RTGcore_CT] (site CGCGCCCCTCC) (LTG core: GT, RTG core: CT)”, the “recombinant barcode read abundance (log10)” value came out at 0.062.
